Like-named read-outs stand apart in the source and are kept apart here.
Key:
GSK3β = GSK3β (Homo sapiens, UniProt P49841); assay: GSK3β ATP depletion assay; assay type: biochemical; settings: read-out: GSK3b IC50
Method in brief: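 Kinase activity is read as ATP consumption: luciferase luminescence reports the ATP remaining once roughly half of the 2 μM ATP is used. Reaction mix: 5 nM GSK3β, 10 μM b-CREB peptide, 50 mM Tris pH 7.5, 15 mM MgCl2, 1 mM DTT, 0.1% BSA, 2.5% DMSO. Enzyme and peptide are preincubated 15 min before ATP is added.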

PIM2 [1] = biological target: T1, PIM2 (Homo sapiens, UniProt Q9P1W9); assay: Pim 2 AlphaScreen assay (high ATP); assay type: biochemical; settings: read-out: Pim2 IC50
T1 sequence (Q9P1W9 whole entry): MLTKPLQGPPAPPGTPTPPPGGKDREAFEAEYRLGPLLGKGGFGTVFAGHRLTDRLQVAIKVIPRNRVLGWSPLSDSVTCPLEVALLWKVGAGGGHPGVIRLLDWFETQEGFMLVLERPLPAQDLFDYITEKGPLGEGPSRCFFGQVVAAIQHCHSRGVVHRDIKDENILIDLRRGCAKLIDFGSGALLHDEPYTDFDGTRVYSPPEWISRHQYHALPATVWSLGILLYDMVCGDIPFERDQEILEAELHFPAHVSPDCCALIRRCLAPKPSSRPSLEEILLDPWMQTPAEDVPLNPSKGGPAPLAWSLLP
Method: Pim1, Pim2, Pim3 AlphaScreen Assay Pim 1, Pim 2 & Pim 3 AlphaScreen assays using high ATP (11-125×ATP Km) were used to determine the biochemical activity of the inhibitors. The activity of Pim 1, Pim 2, & Pim 3 is measured using a homogeneous bead based system quantifying the amount of phosphorylated peptide substrate resulting from kinase-catalyzed phosphoryl transfer to a peptide substrate. Compounds to be tested are dissolved in 100% DMSO and directly distributed to a white 384-well plate at […] per well. To start the reaction, 5 μl of 100 nM Bad peptide (Biotin-AGAGRSRHSSYPAGT —OH) and ATP (concentrations described below) in assay buffer (50 mM Hepes, pH=7.5, 5 mM MgCl2, 0.05% BSA, 0.01% Tween-20, 1 mM DTT) is added to each well. This is followed by the addition of 5 μl/well of Pim 1, Pim 2 or Pim 3 kinase in assay buffer (concentrations described below). Final assay concentrations (described below) are in 2.5% DMSO. The reactions are performed for ˜2 hours, then stopped by the addition of 10 μl of 0.75 μg/ml anti-phospho Ser/Thr antibody (Cell Signaling), 10 μg/ml Protein A AlphaScreen beads (Perkin Elmer), and 10 μg/ml streptavidin coated AlphaScreen beads in stop/detection buffer (50 mM EDTA, 95 mM Tris, pH=7.5, 0.01% Tween-20). The stopped reactions are incubated overnight in the dark. The phosphorylated peptide is detected via an […] initiated chemiluminescence/fluorescence cascade using the Envision plate reader (Perkin Elmer).
IC50, the half maximal inhibitory concentration, represents the concentration of a test compound that is required for 50% inhibition of its target in vitro under the described assay conditions.

PIM2 [2] = biological target: T1, PIM2; assay: KinaseGlo Pim2 ATP depletion assay; assay type: biochemical
Method in brief: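 Compound sat 15 min with enzyme and BAD peptide before ATP was added; final levels 5 nM PIM2, 10 μM peptide, 4 μM ATP, 2.5% DMSO, pH 7.5 HEPES buffer with MgCl2, DTT, BSA. Stopped near 50% ATP consumption; remaining ATP measured by luciferase luminescence.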

[3] = tested on: KMS11 (human myeloma cell line); assay: Cell proliferation assay (CellTiter-Glo), KMS11; assay type: cell-based; settings: Homo sapiens, KMS-11; KMS11-Luc cells
Method in brief: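 EC50 derived from CellTiter-Glo luminescence after 3-day exposure at 37° C. Compound was diluted to 2× in medium and added to an equal volume of cells. KMS11 myeloma cells were plated on assay day at 2000/well in IMDM with 10% FBS and sodium pyruvate.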

PIM1 = PIM1 (Homo sapiens, UniProt P11309); assay: KinaseGlo Pim1 ATP depletion assay; assay type: biochemical
Sequence of PIM1 (P11309 whole entry): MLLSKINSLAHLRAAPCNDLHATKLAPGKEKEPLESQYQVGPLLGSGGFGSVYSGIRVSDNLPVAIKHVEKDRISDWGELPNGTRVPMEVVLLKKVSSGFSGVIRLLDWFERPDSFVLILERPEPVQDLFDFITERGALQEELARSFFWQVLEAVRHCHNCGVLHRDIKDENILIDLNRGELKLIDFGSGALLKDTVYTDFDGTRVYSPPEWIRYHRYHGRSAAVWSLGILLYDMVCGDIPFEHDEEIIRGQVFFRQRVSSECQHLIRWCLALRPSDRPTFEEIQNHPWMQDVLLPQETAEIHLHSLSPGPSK
Method in brief: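 IC50 is derived from residual ATP measured by KinaseGlo Plus luminescence once about half the ATP was consumed. Final conditions were 20 μM ATP, 40 μM BAD peptide and 2.5 nM kinase in HEPES pH 7.5 buffer with MgCl2, DTT and BSA, plus 2.5% DMSO. Compound and enzyme were premixed 15 min before ATP addition.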

PIM3 = PIM3 (Homo sapiens, UniProt Q86V86); assay: KinaseGlo Pim3 ATP depletion assay; assay type: biochemical
Method in brief: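 Residual ATP was detected by luciferase luminescence once about half had been consumed. The reaction contained 5 nM enzyme, 100 μM BAD peptide (RSRHSSYPAGT) and 40 μM ATP in 50 mM HEPES pH 7.5, 5 mM MgCl2, 1 mM DTT and 0.05% BSA with 2.5% DMSO. Compound and enzyme/peptide were premixed 15 min before ATP.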

Sequence of GSK3β (P49841 whole entry, species assumed): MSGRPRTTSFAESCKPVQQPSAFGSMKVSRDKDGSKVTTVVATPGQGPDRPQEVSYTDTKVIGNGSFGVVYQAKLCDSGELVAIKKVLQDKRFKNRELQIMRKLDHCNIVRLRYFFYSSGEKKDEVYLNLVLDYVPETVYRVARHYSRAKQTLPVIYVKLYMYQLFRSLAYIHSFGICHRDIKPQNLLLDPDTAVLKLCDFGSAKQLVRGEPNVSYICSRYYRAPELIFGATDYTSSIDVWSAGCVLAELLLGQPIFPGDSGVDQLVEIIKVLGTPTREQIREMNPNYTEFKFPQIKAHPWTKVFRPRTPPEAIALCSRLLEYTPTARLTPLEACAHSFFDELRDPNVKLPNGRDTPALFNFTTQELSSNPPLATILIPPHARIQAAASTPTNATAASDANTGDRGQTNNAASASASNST

| Compound | IC50 (GSK3β; ATP depletion assay) [nM] | IC50 (PIM2 [1]) [nM] | further results |
| --- | --- | --- | --- |
| CC(C)[C@H]1O[C@@H](c2ccncc2NC(=O)c2ccnc(-n3c(F)cccc3=O)n2)C[C@@H](N)[C@@H]1O [Example 310, N-(4-((2R,4R,5S,6R)-4-amino-5-hydroxy-6-isopropyltetrahydro-2H-pyran-2-yl)pyridin-3-yl)-2-(6-fluoro-2-oxopyridin-1(2H)-yl)pyrimidine-4-carboxamide] | 3310 | 6940 | – |
| CC1(C)C[C@@H](N)C[C@H](c2ccncc2NC(=O)c2ccc(F)c(-c3c(F)cccc3F)n2)O1 [Example 298, N-(4-((2R,4S)-4-amino-6,6-dimethyltetrahydro-2H-pyran-2-yl)pyridin-3-yl)-6-(2,6-difluorophenyl)-5-fluoropicolinamide] | 4940 | 234 | – |
| CC(C)C(=O)Nc1ccc(F)c(-c2nc(C(=O)Nc3cnccc3[C@H]3C[C@@H](N)[C@H](O)[C@@H](C(C)C)O3)ccc2F)c1F [Example 308, N-(4-((2R,4R,5S,6R)-4-amino-5-hydroxy-6-isopropyltetrahydro-2H-pyran-2-yl)pyridin-3-yl)-6-(2,6-difluoro-3-isobutyramidophenyl)-5-fluoropicolinamide] | 18300 | 68.5 | – |
| CC(C)[C@H]1O[C@@H](c2ccncc2NC(=O)c2ccnc(-c3c(F)cccc3F)n2)C[C@@H](N)[C@@H]1O [Example 293, N-(4-((2R,4R,5S,6R)-4-amino-5-hydroxy-6-isopropyltetrahydro-2H-pyran-2-yl)pyridin-3-yl)-2-(2,6-difluorophenyl)pyrimidine-4-carboxamide] | 950 | 154 | – |
| CC[C@@H]1O[C@H](c2ccncc2NC(=O)c2ccc(F)c(-c3c(F)cccc3F)n2)C[C@H](O)[C@@]1(C)O [Example 163, 6-(2,6-difluorophenyl)-N-(4-((2S,4S,5R,6S)-6-ethyl-4,5-dihydroxy-5-methyltetrahydro-2H-pyran-2-yl)pyridin-3-yl)-5-fluoropicolinamide] | – | 7490 | – |
| CC(=O)Nc1ccc(F)c(-c2nc(C(=O)Nc3cnccc3C3C[C@@H](N)[C@H](O)[C@@H](C(C)C)O3)ccc2F)c1F (stereo in doubt) [Example 307, 6-(3-acetamido-2,6-difluorophenyl)-N-(4-((2S,4R,5S,6R)-4-amino-5-hydroxy-6-isopropyltetrahydro-2H-pyran-2-yl)pyridin-3-yl)-5-fluoropicolinamide] | 3420 | 50.1 | – |
| CC(C)(C)[C@H]1O[C@@H](c2ccncc2NC(=O)c2ccc(F)c(-c3c(F)cccc3F)n2)C[C@H](N)[C@@H]1O [Example 278, N-(4-((2R,4S,5S,6R)-4-amino-6-(tert-butyl)-5-hydroxytetrahydro-2H-pyran-2-yl)pyridin-3-yl)-6-(2,6-difluorophenyl)-5-fluoropicolinamide] | 9700 | 70.7 | – |
| CC(C)[C@H]1O[C@@H](c2ccncc2NC(=O)c2ccc(F)c(-c3ccccc3)n2)C[C@@H](N)[C@@H]1O [Example 309, N-(4-((2R,4R,5S,6R)-4-amino-5-hydroxy-6-isopropyltetrahydro-2H-pyran-2-yl)pyridin-3-yl)-5-fluoro-6-phenylpicolinamide] | 8120 | 131 | – |
| CC(C)(C)[C@@H]1O[C@H](c2ccncc2NC(=O)c2ccc(F)c(-c3c(F)cccc3F)n2)C[C@@H](N)[C@H]1O [Example 279, N-(4-((2S,4R,5R,6S)-4-amino-6-(tert-butyl)-5-hydroxytetrahydro-2H-pyran-2-yl)pyridin-3-yl)-6-(2,6-difluorophenyl)-5-fluoropicolinamide] | 548 | 27.1 | – |
| CC(C)[C@H]1O[C@@H](c2ccncc2NC(=O)c2ccc(F)c(-c3ccc(S(C)(=O)=O)cc3)n2)C[C@@H](N)[C@@H]1O [Example 306, N-(4-((2R,4R,5S,6R)-4-amino-5-hydroxy-6-isopropyltetrahydro-2H-pyran-2-yl)pyridin-3-yl)-5-fluoro-6-(4-(methylsulfonyl)phenyl)picolinamide] | 2820 | 1660 | – |
| CC(C)[C@H]1O[C@@H](c2ccncc2NC(=O)c2ccnc(-n3ccc(=O)cc3)n2)C[C@@H](N)[C@@H]1O [Example 304, N-(4-((2R,4R,5S,6R)-4-amino-5-hydroxy-6-isopropyltetrahydro-2H-pyran-2-yl)pyridin-3-yl)-2-(4-oxopyridin-1(4H)-yl)pyrimidine-4-carboxamide] | > 25000 | > 25000 | – |
| C[C@H]1O[C@@H](c2ccncc2NC(=O)c2ccc(F)c(-c3ccc(N)nc3F)n2)C[C@@H](N)[C@]1(C)O [Example 311, 6′-amino-N-(4-((2R,4R,5S,6R)-4-amino-5-hydroxy-5,6-dimethyltetrahydro-2H-pyran-2-yl)pyridin-3-yl)-2′,3-difluoro-2,3′-bipyridine-6-carboxamide] | 2300 | 84.6 | – |
| CC(C)[C@H]1C[C@@H](N)C[C@@H](c2ccncc2NC(=O)c2ccc(F)c(-c3c(F)cccc3F)n2)O1 [Example 301, N-(4-((2S,4R,6R)-4-amino-6-isopropyltetrahydro-2H-pyran-2-yl)pyridin-3-yl)-6-(2,6-difluorophenyl)-5-fluoropicolinamide] | 20700 | 159 | – |
| CC[C@]1(O)[C@H](N)CC(c2ccncc2NC(=O)c2ccc(F)c(-c3c(F)cc(S(C)(=O)=O)cc3F)n2)O[C@@H]1C (stereo in doubt) [Example 284, N-(4-((2S,4R,5S,6R)-4-amino-5-ethyl-5-hydroxy-6-methyltetrahydro-2H-pyran-2-yl)pyridin-3-yl)-6-(2,6-difluoro-4-(methylsulfonyl)phenyl)-5-fluoropicolinamide] | 619 | 59.1 | – |
| CC(C)[C@H]1C[C@@H](N)C[C@@H](c2ccncc2NC(=O)c2ccc(F)c(-c3c(F)cc(S(C)(=O)=O)cc3F)n2)O1 [Example 303, N-(4-((2S,4R,6R)-4-amino-6-isopropyltetrahydro-2H-pyran-2-yl)pyridin-3-yl)-6-(2,6-difluoro-4-(methylsulfonyl)phenyl)-5-fluoropicolinamide] | 10300 | 1250 | – |
| O=C(Nc1cnccc1[C@H]1CCCCO1)c1ccc(F)c(-c2c(F)cccc2F)n1 [Example 134, (R)-6-(2,6-difluorophenyl)-5-fluoro-N-(4-(tetrahydro-2H-pyran-2-yl)pyridin-3-yl)picolinamide] | – | – | IC50 (GSK3β): 759 nM; IC50 (PIM2 [2]): 678 nM; EC50 [3]: > 10000 nM; IC50 (PIM1): 10 nM; IC50 (PIM3): 400 nM |
| Nc1cnc(-c2c(F)cccc2F)nc1C(=O)Nc1cnccc1[C@H]1C[C@@H](O)[C@@]2(O)CCC[C@H]2O1 [Example 180, 5-amino-2-(2,6-difluorophenyl)-N-(4-((2R,4R,4aS,7aR)-4,4a-dihydroxyoctahydrocyclopenta[b]pyran-2-yl)pyridin-3-yl)pyrimidine-4-carboxamide] | – | – | IC50 (GSK3β): 101 nM; IC50 (PIM2 [2]): 10.6 nM; EC50 [3]: > 10000 nM; IC50 (PIM1): 8.4 nM; IC50 (PIM3): 7.2 nM |
| O=C(Nc1cnccc1[C@@H]1C[C@H](O)[C@@H](O)[C@H](C2CC2)O1)c1cccc(-c2c(F)cccc2F)n1 [Example 206, N-(4-((2S,4S,5R,6S)-6-cyclopropyl-4,5-dihydroxytetrahydro-2H-pyran-2-yl)pyridin-3-yl)-6-(2,6-difluorophenyl)picolinamide] | – | – | IC50 (GSK3β): 1920 nM; IC50 (PIM2 [2]): 33.8 nM; EC50 [3]: > 10000 nM; IC50 (PIM1): 19.9 nM; IC50 (PIM3): 20.2 nM |

From patent US20130109682A1, “CYCLIC ETHER COMPOUNDS USEFUL AS KINASE INHIBITORS” (NOVARTIS AG, priority 2010, published 2013)
